The results in this text go back to patent US7335186B2 (priority 1998, dated 2008).

For the experiment the following is noted: 30 mg per ml solutions.

Turning to `CN1CC[C@]23c4c5ccc(O)c4O[C@H]2[C@@H](O)C=C[C@H]3[C@H]1C5.O=S(=O)(O)O` [Morphine sulphate], the “effectiveness of nasal solution” value is reported as “effective”.
